# From ChEMBL document CHEMBL5331104, “Discovery of BRD4-HDAC Dual Inhibitors with Improved Fungal Selectivity and Potent Synergistic Antifungal Activity against Fluconazole-Resistant Candida albicans” (J Med Chem, 2023)
# Tests used:
# Cryptococcus neoformans = assay: Antifungal activity against Cryptococcus neoformans H99 assessed as fungal growth inhibition incubated for 24 hrs by broth dilution method; assay type: functional
# Candida albicans [1] = assay: Antifungal activity against Candida albicans SC5314 assessed as fungal growth inhibition incubated for 24 hrs by broth dilution method; assay type: functional
# HL-60 = assay: Antiproliferative activity against human HL-60 cells incubated for 48 hrs by CCK8 assay; assay type: functional, cell-based; conditions: HL-60, 48 h
# Candida albicans [2] = assay: microbe, parasite or virus in culture; assay type: functional; conditions: 0304103, time 24 hrs
# Description: Synergetic antifungal activity against Candida albicans 0304103 assessed as microbial growth inhibition incubated for 24 hrs in the presence of fluconazole by checkerboard microdilution method
# K562 = assay: Antiproliferative activity against human K562 cells incubated for 48 hrs by CCK8 assay; assay type: functional, cell-based; conditions: K562, 48 h
# HEL = assay: Antiproliferative activity against human HEL cells incubated for 48 hrs by CCK8 assay; assay type: functional, cell-based
# Candida albicans [3] = assay: microbe, parasite or virus in culture; assay type: functional; conditions: 0304103
# Description: Antifungal activity against Candida albicans 0304103 assessed as microbial growth inhibition
# Candida albicans [4] = assay type: functional, 0304103; conditions: time 24 hrs
# Description: Synergetic antifungal activity against Candida albicans 0304103 assessed as fractional inhibitory concentration index incubated for 24 hrs in the presence of fluconazole by checkerboard microdilution method
# in vitro = conditions: human, HUVEC cells
# Description: Cytotoxicity against HUVECs assessed as inhibition of cell growth incubated for 48 hrs by CCK8 assay
# Histone deacetylase = assay: Inhibition of total HDAC in human HUVEC cells using Boc-Lys(Ac)-AMC as substrate preincubated for 12 hrs followed by substrate addition measured after 6 hrs by microtiter plate reader analysis; assay type: cell-based
# Histone deacetylase 1 = Histone deacetylase 1 (Homo sapiens, UniProt Q13547); assay: Inhibition of full-length recombinant human HDAC1 (1 to 482 residues) expressed in baculovirus infected insect cells using […] as substrate incubated for 30 mins by fluorescence based analysis; parameters: species or system Insect cell
# Chain of Histone deacetylase 1 (Q13547 whole entry, the tested form may be a part): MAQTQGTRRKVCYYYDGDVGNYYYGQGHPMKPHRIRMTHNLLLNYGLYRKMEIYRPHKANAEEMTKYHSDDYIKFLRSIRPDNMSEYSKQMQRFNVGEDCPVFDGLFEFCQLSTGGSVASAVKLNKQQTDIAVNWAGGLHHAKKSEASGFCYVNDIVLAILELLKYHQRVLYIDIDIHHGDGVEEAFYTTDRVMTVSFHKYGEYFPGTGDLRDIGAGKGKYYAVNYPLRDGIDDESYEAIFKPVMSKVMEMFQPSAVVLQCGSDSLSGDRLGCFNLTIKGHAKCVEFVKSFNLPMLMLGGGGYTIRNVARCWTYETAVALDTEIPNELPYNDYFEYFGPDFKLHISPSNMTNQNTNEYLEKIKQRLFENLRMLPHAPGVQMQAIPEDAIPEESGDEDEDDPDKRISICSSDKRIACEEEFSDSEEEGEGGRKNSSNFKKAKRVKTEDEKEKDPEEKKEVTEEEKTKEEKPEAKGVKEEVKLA
Compound,MIC80 (Cryptococcus neoformans),MIC80 (Candida albicans [1]),IC50 (HL-60),MIC80 (Candida albicans [2]),IC50 (K562),IC50 (HEL),MIC80 (Candida albicans [3]),fractional inhibitory concentration index (FICI) (Candida albicans [4]),IC50 at 48 h (in vitro),IC50 (Histone deacetylase),IC50 (Histone deacetylase 1)
Cc1sc2c(c1C)C(c1ccc(Cl)cc1)=N[C@@H](CC(=O)OC(C)(C)C)c1nnc(C)n1-2,> 64 µg/mL,> 64 µg/mL,150 nM,64 µg/mL,1400 nM,69 nM,> 64 µg/mL,>2,580 nM,,
Cc1nnc2n1-c1ccccc1C(c1ccccc1)=N[C@H]2CC(=O)NCc1ccc(C(=O)NO)cc1,32 µg/mL,> 64 µg/mL,5700 nM,8 µg/mL,> 10000 nM,> 10000 nM,> 64 µg/mL,0.14,17000 nM,2800 nM,250 nM
Cc1nnc2n1-c1sc3c(c1C(c1ccc(Cl)cc1)=N[C@H]2CC(=O)Nc1ccc(CC(=O)NO)cc1)CCCC3,16 µg/mL,> 64 µg/mL,1100 nM,4 µg/mL,> 10000 nM,4000 nM,> 64 µg/mL,0.07,5900 nM,2200 nM,1400 nM
Cc1nnc2n1-c1ccccc1C(c1ccc(Cl)cc1)=N[C@H]2CC(=O)Nc1ccc(CC(=O)NO)cc1,32 µg/mL,> 64 µg/mL,1100 nM,32 µg/mL,> 10000 nM,> 10000 nM,> 64 µg/mL,0.75,19000 nM,2800 nM,2400 nM
Cc1nnc2n1-c1ccccc1C(c1ccc(Cl)cc1)=N[C@H]2CC(=O)Nc1ccc(/C=C/C(=O)NO)cc1,8 µg/mL,> 64 µg/mL,4700 nM,4 µg/mL,1500 nM,> 10000 nM,> 64 µg/mL,0.066,8100 nM,420 nM,630 nM
Cc1nnc2n1-c1ccccc1C(c1ccccc1)=N[C@H]2CC(=O)Nc1ccc(/C=C/C(=O)NO)cc1,8 µg/mL,> 64 µg/mL,7000 nM,4 µg/mL,1900 nM,> 10000 nM,> 64 µg/mL,0.094,14000 nM,16 nM,100 nM
Cc1nnc2n1-c1ccccc1C(c1ccc(Cl)cc1)=N[C@H]2CC(=O)Nc1ccc(C(=O)NO)cc1,32 µg/mL,> 64 µg/mL,870 nM,16 µg/mL,> 10000 nM,> 10000 nM,> 64 µg/mL,31,34000 nM,160 nM,110 nM
Cc1nnc2n1-c1sc3c(c1C(c1ccc(Cl)cc1)=N[C@H]2CC(=O)Nc1ccc(/C=C/C(=O)NO)cc1)CCCC3,4 µg/mL,> 64 µg/mL,5100 nM,4 µg/mL,2400 nM,> 10000 nM,> 64 µg/mL,0.066,4700 nM,150 nM,790 nM
Cc1ccc(C2=N[C@@H](CC(=O)Nc3ccc(C(=O)NO)cc3)c3nnc(C)n3-c3ccccc32)cc1,32 µg/mL,> 64 µg/mL,340 nM,4 µg/mL,> 10000 nM,390 nM,> 64 µg/mL,0.078,2800 nM,130 nM,51000 nM
Cc1nnc2n1-c1ccc(Cl)cc1C(c1ccccc1Cl)=N[C@H]2CC(=O)NCc1ccc(C(=O)NO)cc1,16 µg/mL,> 64 µg/mL,> 10000 nM,8 µg/mL,> 10000 nM,> 10000 nM,> 64 µg/mL,0.16,48000 nM,3400 nM,1900 nM
